# Measured values from patent US20030036556A1, “Zonisamide use in headache” (priority 2001, published 2003).
# Where two headings read alike, the source gives them in different places.
# Assays:
# rat hippocampal slices = settings: zonisamide 10-30 μg/mL; cited from earlier work
# [1] = test system: generalized seizures in the kindled rat model; settings: cited from earlier work
# [2] = test system: interictal spikes and secondarily generalized seizures; settings: cortical freezing in cats; cited from earlier work
# [3] = test system: GABA/benzodiazepine receptor ionophore complex; settings: in vitro, cited from earlier work
# cortical focal seizures = settings: electrical stimulation of the visual cortex in cats; cited from earlier work
# [4] = test system: interictal spikes and secondarily generalized seizures; settings: cortical application of tungstic acid gel in rats; cited from earlier work
# T-type Ca2+ currents = settings: in vitro, cited from earlier work
# [5] = test system: refractory migraines and mixed headache disorders; assay: Open-label adjunctive zonisamide treatment of refractory headache patients (Example 1); assay type: in vivo, human
# Experimental: Thirty-three (33) patients from an active headache clinic population were selected for open-label treatment with zonisamide. All patients had refractory migraines and mixed headache disorders, as defined by International Headache Society criteria. All had failed or responded poorly to trials with other anticonvulsants as prophylactic therapy. Most patients (n=27) had failed at least 2 such agents, and 17 had failed 3 agents. […] (Table 1). Zonisamide was initiated as adjunctive therapy: 100 mg of the medication was given in the evening or at bedtime every fourth day for 4 to 5 doses. Consequently, dosing was increased to every third day, every other day, and finally to a daily dose. Dose adjustments of zonisamide were made in increments of 100 mg, every 2 to 3 weeks, with a daily maximum dose of 500 mg, in some cases. Headache severity was rated on a 0 to 10 numeric rating scale (NRS).
# [6] = test system: chronic pain disorders (neuropathic pain), refractory migraine headaches; assay: Zonisamide treatment of chronic pain and refractory headache patients (Example 3); assay type: in vivo, human
# From the text: Twenty-five patients with various chronic pain disorders were selected for treatment with zonisamide. All had neuropathic pain of one kind or another. Fifteen had failed back/neck surgeries with ongoing radicular pain, 4 had complex regional pain syndrome (type 1), 4 had diabetic neuropathy, and 2 had painful sensory neuropathy. All had failed, or responded minimally at best, to trials of numerous other anticonvulsants (neuronal stabilizing agents) for prior treatment of pain symptoms. Eighteen were on such therapy at the time of starting zonisamide therapy. Twenty-two patients with refractory migraine headaches of mixed headache disorders were similarly selected for zonisamide therapy. Most (n=17) had failed 3 or more other neuronal stabilizing agents as prophylaxis therapy for their headaches. […] Zonisamide was begun at 100 mg every third day for 3 to 5 doses, with an increase to every-other-day dosing and then to a daily dose. Dosage changes were made every 2 weeks at a minimum. Headache and pain spores were rated on a 0 to 10 numeric rating scale by each patient.
# [7] = test system: dopaminergic and serotonergic neurotransmission; settings: in vivo microdialysis; cited from earlier work
# [8] = test system: chronic pain disorders, all with neuropathic pain; assay: Zonisamide treatment of chronic pain patients (Example 4); assay type: in vivo, human
# Experimental: This study included 30 patients with various chronic pain disorders, all with neuropathic pain (Table 1). All patients had previously failed or responded minimally to numerous other anticonvulsants (neuronal stabilizing agents) for treatment of painful symptoms. Twenty-three patients were on such therapy at the time zonisamide therapy was initiated. Zonisamide therapy was initiated at 100 mg every fourth day for 3 to 6 doses, with an increase to every third day, then to every other day, and finally to a daily dose. Adjustments in the dose of zonisamide were made no more than every 2 weeks. Headache and pain scores were rated on a 0 to 10 numeric rating scale (NRS) by each patient.
# [9] = test system: CDH (chronic daily headache); assay: Zonisamide for prophylaxis of chronic daily headache (Example 2); assay type: in vivo, human; settings: for Mean number of headache days per month: baseline 22
# Experimental: Sixteen patients who received zonisamide for prophylaxis of CDH (i.e., >15 headache days/month) for at least 3 months were included in this study. […] Zonisamide therapy was initiated at 100 mg/day, and 6 patients were titrated to a zonisamide dosage of 200 mg/day after 2 weeks. Patient headache diaries were used to record information, regarding headache frequency, duration, severity, and disability ratings. Headache severity and disability were rated using a 4-point scale (0=none; 1=mild; 2=moderate; 3=severe). Headache diaries and clinic records were used to determine mean headache duration, frequency, severity, disability for each patient 1 month prior to initiation of zonisamide therapy (baseline) and again 3 months after stable zonisamide dosage was established.
# sodium channels = settings: in vitro, cited from earlier work
# [10] = test system: cultured mouse spinal cord neurons; settings: zonisamide 10-30 μg/mL; cited from earlier work
compound,measurement,setting,value
"NS(=O)(=O)Cc1noc2ccccc12 [zonisamide, 1,2-benzisoxazole-3-methanesulfonamide]",neuronal or glial uptake of [3H]-GABA,rat hippocampal slices,without affecting
same,effect on threshold for generalized seizures,[1],anticonvulsant activity
same,interictal spikes and secondarily generalized seizures,[2],suppressed
same,binding to the GABA/benzodiazepine receptor ionophore complex,[3]; allosteric fashion,binds
same,changes in chloride flux,[3],does not produce changes
same,duration of cortical focal seizures,cortical focal seizures,reduced the duration
same,interictal spikes and secondarily generalized seizures,[4],suppressed
same,"effect on voltage-dependent, transient inward currents (T-type Ca2+ currents)",T-type Ca2+ currents,reduces
same,"effect on voltage-dependent, transient inward currents (T-type Ca2+ currents)",T-type Ca2+ currents; listed as Zonisamide,blocks
same,number of patients (n) with discontinuation due to side effects,[5]; 33 patients,4
same,number of patients (n) with no response,[5]; 33 patients,3
same,number of patients (n) with 25% to 50% decrease in headache frequency,"[5]; after at least 2 months of zonisamide therapy, 33 patients",8
same,number of patients (n) with ≧65% decrease in headache frequency,"[5]; after at least 2 months of zonisamide therapy, 33 patients, 10 still in titration",6
same,patients who did not respond,[5]; of 33 patients,9 % of total
same,patients who dropped the medication due to side effects,[5]; of 33 patients,12 % of total
same,number of patients with pain reductions averaging 60% or better,[6]; 0 to 10 numeric rating scale,6 patients
same,number of patients with reductions in pain of 30% to 50%,[6]; 0 to 10 numeric rating scale,Six
same,number of patients with slight reductions (less than 25%),[6]; 0 to 10 numeric rating scale,Four
same,number of patients with no pain relief and/or side effects,"[6]; human, in vivo",7 patients
same,dopaminergic and serotonergic neurotransmission,[7],facilitates
same,number of patients with no pain relief and/or reported side effects,[8]; 30 patients,5 patients
same,number of patients with slight (less than 25%) pain reductions,[8]; 30 patients,Five
same,number of patients with pain reductions of 60% or greater,"[8]; after at least 2 months of zonisamide therapy, 30 patients",10 patients
same,number of patients with 30% to 50% reductions in pain,"[8]; after at least 2 months, 30 patients",7 patients
same,share of patients with 30% to 50% reductions in pain,[8]; of 30 patients,23%
same,share of patients with no pain relief and/or reported side effects,[8]; of 30 patients,17%
same,share of patients with pain reductions of 60% or greater,[8]; of 30 patients,30%
same,share of patients with slight (less than 25%) pain reductions,[8]; of 30 patients,17%
same,Mean disability rating,"[9]; 4-point scale (0=none to 3=severe), after 3 months, baseline 1.48",1.12
same,Mean headache severity rating,"[9]; 4-point scale (0=none to 3=severe), after 3 months, baseline 1.84",1.41
same,Mean headache duration,"[9]; after 3 months at stable dosage, mean dosage 137.5 mg/d, baseline 8.46",6.41 h
same,Mean number of headache days per month,"[9]; after 3 months at stable dosage, mean dosage 137.5 mg/d, n=16",5 days/month
same,Mean number of headache days per month,"[9]; after 3 months at stable dosage, mean dosage 137.5 mg/d, n=16, listed as Zonismide",14.5 days/month
same,decrease of mean disability rating,[9]; after 3 months vs baseline,24%
same,decrease of mean headache rating,[9]; after 3 months vs baseline,23%
same,reduction of mean headache duration,[9]; after 3 months vs baseline,24%
same,reduction of total headache time,[9]; after 3 months vs baseline,50%
same,reduction of mean number of headache days/month,"[9]; after 3 months vs baseline, mean dosage 137.5 mg/d",34%
same,mean weight loss,[9]; in the 9 patients with weight loss,11 lb.
same,adverse events: number of patients with mild diarrhea,[9]; n=16,2 patients
same,adverse events: number of patients with weight loss,[9]; n=16,9 patients
same,tolerability,"[9]; n=16, 3 months",well tolerated
same,Total headache time,"[9]; on zonisamide after 3 months, baseline 186",93 hours/month
same,effect on sodium channels,sodium channels,blocks
same,effect on sodium channels,sodium channels; listed as Zonisamide,inhibits
same,post-synaptic GABA or glutamate responses,[10],without affecting
same,synaptically-driven electrical activity,[10],suppresses
